Data on two molecules can be found in publication PMC12301304 (Frontiers in Pharmacology, 2025).

Read-outs that look alike come from different tables or passages of the source.

The target in one data set is T1, CYP2c11 (Rattus norvegicus, UniProt P08683).
T1 sequence (P08683 1-500): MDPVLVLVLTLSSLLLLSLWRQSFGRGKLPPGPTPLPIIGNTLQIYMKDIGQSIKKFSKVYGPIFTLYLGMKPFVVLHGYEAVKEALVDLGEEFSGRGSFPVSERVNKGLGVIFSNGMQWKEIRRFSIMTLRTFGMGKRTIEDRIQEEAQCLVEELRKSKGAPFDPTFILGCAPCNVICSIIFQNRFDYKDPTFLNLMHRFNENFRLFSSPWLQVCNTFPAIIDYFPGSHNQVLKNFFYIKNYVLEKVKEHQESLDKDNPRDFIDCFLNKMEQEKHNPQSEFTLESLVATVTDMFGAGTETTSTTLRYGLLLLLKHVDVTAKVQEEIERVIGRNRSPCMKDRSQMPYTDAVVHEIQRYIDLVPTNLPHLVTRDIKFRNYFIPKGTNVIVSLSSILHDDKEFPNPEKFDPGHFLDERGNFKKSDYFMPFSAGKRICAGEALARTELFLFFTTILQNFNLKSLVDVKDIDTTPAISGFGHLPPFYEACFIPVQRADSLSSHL
Here is the method:
(§1) The effect of the Zhicaowu–Hezi combination on CYP450 enzymes in RLM was evaluated by assessing the metabolic clearance rates of theophylline, metoprolol, bupropion, mephenytoin (CYP2c13), chlorzoxazone, testosterone, and diclofenac.
(§2) On day 15, the rats were humanely euthanized, and liver tissues were excised for microsomal preparation. […] Livers from each group were repeatedly washed with ice-cold phosphate buffered saline (PBS). […] Subsequently, they were blotted dry with filter paper, weighed, and homogenized by adding 4 mL of ice-cold PBS per gram of liver tissue. The mixture was homogenized in an ice bath. The liver homogenate was subjected to centrifugation at 10,000 RPM for 20 min at 4°C. The resulting supernatant was then combined with an ice-cold 88-mmol/L CaCl2 solution at a 1:1 ratio, and the mixture was homogenized in an ice bath for 5 min. The resulting solution was then centrifuged at 25,000 × g for 30 min at 4°C. The supernatant was discarded and the precipitate was repeatedly resuspended in PBS–20% glycerol buffer. The precipitate was then stored in a separate bottle at −80°C for backup. The protein concentration of the prepared RLM was determined using a bicinchoninic acid protein assay kit.
(§3) Preincubation was conducted for 5 min in a water bath at 37°C, after which NADPH (1 mmol/L) was added, and incubation continued for 30 min at 37°C. Once the incubation period elapsed, the reaction was terminated by the addition of an ice-cold IS-containing acetonitrile solution. The samples were vortexed for 2 min and centrifuged at 15,000 RPM for 10 min. The resulting supernatant was filtered through a 0.22-μm organic microporous membrane, and 20 μL of the filtered solution was injected into the HPLC assay. To prevent the organic solvents from inducing or inhibiting the enzyme, the volume fraction of organic solvents in the entire incubation system was maintained at 1%. […] The inhibitor group was added with corresponding inhibitor, while all other procedures remained identical.

For another data set, the target named is T2, CYP2d2 (Rattus norvegicus, UniProt P10634).
T2 sequence (P10634 1-500): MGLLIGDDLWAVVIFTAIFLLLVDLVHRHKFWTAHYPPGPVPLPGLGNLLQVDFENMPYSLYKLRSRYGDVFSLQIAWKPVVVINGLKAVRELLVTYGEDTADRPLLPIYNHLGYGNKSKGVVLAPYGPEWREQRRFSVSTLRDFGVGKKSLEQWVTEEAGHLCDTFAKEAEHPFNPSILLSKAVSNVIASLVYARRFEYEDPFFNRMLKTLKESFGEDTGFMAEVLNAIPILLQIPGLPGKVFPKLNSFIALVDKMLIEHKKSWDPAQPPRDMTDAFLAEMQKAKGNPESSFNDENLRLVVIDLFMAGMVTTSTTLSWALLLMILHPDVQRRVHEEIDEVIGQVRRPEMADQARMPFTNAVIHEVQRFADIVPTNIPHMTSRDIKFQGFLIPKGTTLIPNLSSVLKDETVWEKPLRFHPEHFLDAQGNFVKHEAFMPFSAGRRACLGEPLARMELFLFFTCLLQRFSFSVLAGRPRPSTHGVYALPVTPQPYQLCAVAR
Here is the method:
as §1, §2, §3

In the next data set the target is T3, CYP3a1 (Rattus norvegicus, UniProt P04800).
T3 sequence (P04800 1-504): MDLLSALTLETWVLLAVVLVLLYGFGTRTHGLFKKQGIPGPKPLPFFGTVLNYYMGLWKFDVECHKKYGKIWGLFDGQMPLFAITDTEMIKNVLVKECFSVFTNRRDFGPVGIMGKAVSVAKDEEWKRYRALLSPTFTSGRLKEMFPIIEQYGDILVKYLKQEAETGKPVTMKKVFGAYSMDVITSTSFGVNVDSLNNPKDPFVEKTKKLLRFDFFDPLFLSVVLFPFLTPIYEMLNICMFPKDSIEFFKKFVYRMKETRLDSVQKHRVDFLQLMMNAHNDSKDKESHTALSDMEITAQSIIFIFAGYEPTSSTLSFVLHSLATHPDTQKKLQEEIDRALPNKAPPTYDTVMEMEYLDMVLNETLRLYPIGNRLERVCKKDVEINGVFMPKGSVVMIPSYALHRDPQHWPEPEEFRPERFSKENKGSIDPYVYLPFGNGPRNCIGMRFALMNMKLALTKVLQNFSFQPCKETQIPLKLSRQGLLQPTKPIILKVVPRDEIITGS
Here is the method:
as §1, §2, §3

A further data set has as its target T4, CYP2c13 (Rattus norvegicus, UniProt P20814).
T4 sequence (P20814 1-490): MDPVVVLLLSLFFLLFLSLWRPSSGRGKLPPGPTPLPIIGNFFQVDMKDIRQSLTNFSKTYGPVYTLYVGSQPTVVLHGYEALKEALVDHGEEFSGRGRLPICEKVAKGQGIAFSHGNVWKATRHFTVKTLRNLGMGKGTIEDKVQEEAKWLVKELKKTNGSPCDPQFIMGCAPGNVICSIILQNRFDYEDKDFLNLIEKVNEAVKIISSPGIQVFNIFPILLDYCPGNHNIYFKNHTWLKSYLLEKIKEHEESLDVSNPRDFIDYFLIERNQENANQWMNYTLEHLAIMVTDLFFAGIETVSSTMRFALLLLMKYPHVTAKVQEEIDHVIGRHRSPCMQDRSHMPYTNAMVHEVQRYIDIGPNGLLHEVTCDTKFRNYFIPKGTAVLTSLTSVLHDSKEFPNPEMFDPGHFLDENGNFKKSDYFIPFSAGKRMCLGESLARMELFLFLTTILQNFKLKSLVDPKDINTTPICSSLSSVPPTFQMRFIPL
Nature of the data set: RLM incubation: metabolic clearance rate of mephenytoin (CYP2c13). The following applies: RLM 0.5 mg/mL, 30 min 37°C, inhibitor added, blank control 15.97 ± 0.68, n = 3. The procedure: as §1, §2, §3

With `S=P(N1CC1)(N1CC1)N1CC1` [Thiotepa], the “CYP2c11(%) metabolic clearance rate of probe drug” value at CYP2c11 is given as 21.84 ± 2.64%. In addition, the “CYP2d2 (%) metabolic clearance rate of probe drug” value at CYP2d2 is on record as 12.67 ± 0.65%. Further, the “CYP3a1 (%) metabolic clearance rate of probe drug” value on CYP3a1 came to 25.72 ± 2.36%. In addition, the “CYP2c13(%) metabolic clearance rate of probe drug” value at CYP2c13 came to 14.43 ± 0.36%.
As for `O=c1cc(-c2ccccc2)oc2c1ccc1ccccc12` [α-naphthoflavone], on CYP2c11 (RLM 0.5 mg/mL, 30 min 37°C, inhibitor added, probe diclofenac, blank control 21.12 ± 3.80, n = 3), the “CYP2c11(%) metabolic clearance rate of probe drug” value turned out to be 23.02 ± 0.55%. Moreover, on CYP2d2 (RLM 0.5 mg/mL, 30 min 37°C, inhibitor added, probe metoprolol, blank control […] ± 2.12, n = 3), the “CYP2d2 (%) metabolic clearance rate of probe drug” value worked out at 13.12 ± 0.82%. At CYP3a1 (RLM 0.5 mg/mL, 30 min 37°C, inhibitor added, probe testosterone, blank control 25.04 ± 1.93, n = 3), the “CYP3a1 (%) metabolic clearance rate of probe drug” value is 25.69 ± 2.09%. The “CYP2c13(%) metabolic clearance rate of probe drug” value at CYP2c13 was found to be 16.65 ± 3.04%.
